For orientation: melting point means the temperature, or range, at which the solid turns liquid.

On to `CCOC(=O)C(=Cc1ccc(OC)c(O)c1)C(=O)OCC`, for which the melting point is 81 to 83 °C.
Regarding `CN(C)C=C1Cc2c(Cl)cccc2C1=O`, the melting point was in the range of 148 to 150 °C.
Turning to `NC(=O)c1ccc2c(c1)nc(-c1ccc(OCc3ccccc3)cc1)n2C1CCCC1`, the melting point was in the range of 232 to 233 °C.
For `COCC1CN(c2ccc(C3CCC(OCCCCC(N)=O)CC3)cc2)C(=O)O1` (racemic) the value was 72 to 74 °C.
Take `CC(C)C[C@H](NC(=O)CCCc1ccccc1)C(=O)N[C@@H](C(C)C)[C@@H](O)c1c(-c2ccccc2)c1=O`: the melting point lay within 91 to 96 °C.
`O=C1CCN(Cc2ccc(C(F)(F)F)cc2)CC1C(c1ccc(F)cc1)c1ccc(F)cc1` (stereo not given) returned a melting point of 126 to 127 °C.
For `CNS(=O)(=O)c1ccc(Nc2nc(-c3ccccc3)cc(N3CCC(O)CC3)n2)cc1` the value was 280 to 285 °C; for `O=C1OC(O)c2c1cccc2[N+](=O)[O-]` (stereo not given), 153 to 156 °C; for `Cc1ccc(C(CCCOC(=O)Nc2ccccc2)=NNC(N)=S)cc1`, 170 to 173 °C.
The compound `COc1cc(Oc2ccc(S(C)(=O)=O)cc2)cc2cc(C3=NCC(CC(=O)O)S3)[nH]c12` (stereo not given) displayed a melting point of 144 to 145 °C.
`CCOC(=O)c1cnn(-c2ccc(OCC(C)C)c(C#N)c2)c1`: the melting point was 138 to 139 °C.
In turn, `Cc1cccc(S(=O)(=O)n2ccc(Br)c2)c1C#N` registered a melting point of 98 to 100 °C.
`CCCc1ccc2c(c1)N(c1ncnc3cc(OC)c(OC)cc13)CC2`: the melting point lay in the range of 140 to 141 °C.
Then `CC(C)(C)c1cc(OCCCCc2nnn[nH]2)cc(C(C)(C)C)c1O`, with 141 to 142 °C; and `CN(C)CC#Cc1ccc2c(Nc3ccc(Cl)cc3Cl)c(C#N)cnc2c1`, with 144 to 145 °C.
Compound `O=[N+]([O-])c1cc(Cn2nnnc2Sc2ccccc2)cc([N+](=O)[O-])c1` had a melting point of 156 to 158 °C.
`COc1cc(CC(C)=O)c([N+](=O)[O-])cc1Cl` returned a melting point of 114 to 115 °C.
`CCOc1ccc(OCCCCCN2CCN(c3nccs3)CC2)cc1` returned a melting point of 79 to 81 °C.
For `Cc1c(N2C(=O)C[C@](C)(O)[C@@H]2C)ccc(C#N)c1F` the value was 138 to 141 °C.
Regarding `CCOC(=O)C1CCn2c(cc3cc(OC)ccc32)C1` (stereo not given), the melting point is 104 to 105 °C.
`O=C(NCCNC(=O)C1CCNC1)OCc1ccccc1` (stereo not given) gave a melting point of 129 to 131 °C.
For `CCCOC(=O)C(N)C=CCP(=O)(O)O` (stereo not given) the value was 161 to 162 °C.
Then `CCc1nn(C2CCCC2)c2cc(C(=O)Nc3ccc(C(=O)NOCc4ccccc4)cc3)ccc12`, with 194 to 198 °C.
The compound `COc1ccc(-c2n[nH]c(=O)cc2-c2ccc(OC)c(F)c2)cc1` returned a melting point of 213 °C.
The compound `CCCN(CCC)C(=O)CNc1ccnc(-c2ccccc2)n1` had a melting point of 74 to 75 °C.
In turn, `N#CC=Cc1ccc(Cl)cc1C(=O)c1ccccc1` displayed a melting point of 89 to 91 °C.
For the compound `CCC(CC)CNC(=O)c1ccc2c(c1)N(C(C)CN1CCCC1)c1ccccc1S2` (racemic), the melting point was determined as 115 °C.
The compound `CC1(O)CC(C)(C)c2ccc(Oc3ccc([N+](=O)[O-])cc3)cc2O1` (stereo not given) displayed a melting point of 159 to 160 °C.
In turn, `c1ccc(-c2ncc(N3CCCC3CCCCOC3CCCCO3)nc2-c2ccccc2)cc1` (stereo not given) showed a melting point of 94 to 96 °C.
Then `COc1ccc(C(=O)c2ccc(Cl)cc2Cl)cc1Cl`, with 98 °C; and `C#Cc1cnn2ccc(-c3ccc(Cl)cc3)nc12`, with 128 to 129 °C.
Consider `COc1ccc2c(Cl)nc(C(=O)NCCO)c(O)c2c1`, for which the melting point fell in the range of 117 to 119 °C.
For `CCOC(=O)Cn1c(=S)c2ccccc2n(Cc2ccc(Br)cc2F)c1=O` the value was 109 to 110 °C.
For `Nc1ccc(Oc2cccc(Oc3ccc(N)c(O)c3)c2)cc1O` the value was 171 to 174 °C.
With `Cn1cc(C(=O)NCc2ccc(Cl)cc2)c(=O)c2cc(CN3CCSCC3)ccc21`, the melting point fell in the range of 215 to 219 °C.

Values taken from a melting point compilation (Tetko et al.; mined from patent text by program, amines drawn as free bases though some values may be those of a salt).
